Data taken from patent US20090286802A1, “High Dose Folic Acid Compositions for Vascular Dysfunction” (priority 2005, published 2009).
Several values for one entry are separate records, joined by “and”; a condition that tells them apart may be missing. Equal values may be shown once.

How the values were obtained:
[1] = oral administration; cited from earlier work
[2] = system: patients with ischemic heart disease; assay: Hemodynamic variables (HR, RPP, blood pressure) at rest and during adenosine, double-blind placebo-controlled crossover study; format: in vivo, human; conditions: for HR / DBP (diastolic blood pressure) / MAP (mean arterial blood pressure) / RPP (rate pressure product, SAP × HR) / SAP (systolic blood pressure): folate 30 mg oral, mean ± SD
Method: (§1) 14 patients with ischemic heart disease, age 62±12yr. (mean±SD), were enrolled in a double-blind, placebo controlled crossover trial. Basal and adenosine-stimulated myocardial blood flow (MBF) were determined by PET and myocardial flow reserve was calculated. Each patient was studied after ingestion of placebo and after ingestion of 30 mg folic acid. Myocardial zones were prospectively defined physiologically as “NORMAL” vs “ABNORMAL” based on MBF response to Ado 140 (NORMAL=MBF>1.65 ml/min/g). ABNORMAL and NORMAL zones were analyzed separately in a patient based analysis.
Patient Population: Adult male and female patients with coronary artery disease and normal serum homocysteine concentration (HCY<12 μM) were recruited from the greater Boston area. Coronary artery disease was defined as the presence of a >50% stenosis in at least one coronary artery identified by coronary arteriography within the last 5 years. Exclusion criteria included: inability to maintain a stable medical regimen during the study period, concurrent use of folic acid, or myocardial infarction or coronary intervention within the proceeding 3 months. The study protocol was approved by the local Human Research Committee and informed consent was obtained from each subject.
(§2) Study Drug Administration. Subjects were enrolled in a double-blinded, placebo-controlled, crossover study during which folate syrup (30 mg) or similar tasting placebo syrup was administered orally in two divided doses, 10-12 hours and 1 hour prior to MBF measurements. […] Folate and placebo were administered at least one week apart, in random order, and in a double-blinded manner.
(§3) Myocardial Blood Flow Measurements. Vasoactive medications were withheld for 3-5 half-lives, and subjects were asked to avoid caffeinated beverages for 24 h before blood flow measurements. MBF was assessed with PET (GE Medical Systems Scanditronix PC4096), approximately 1-hr after ingestion of the second dose of the study drug. PET measurements of MBF (^13N-ammonia method) were performed at rest and during the infusion of two doses of adenosine (70 and 140 mcg/kg/min), using a previously described method (Huggins, G. S., et al., Circulation 1998; 98:1291-6).
Statistical Analysis. Data are expressed as mean±SD. A repeated measures ANOVA was performed, (Statview v 4.0, Abacus Concepts), with terms for the order of folate vs. placebo administration, patient, and observations (blood pressure, MBF and G) for the three repeated measurements (adenosine 0, 70, and 140). To control for multiple testing, prospectively defined pair-wise t-tests comparing folate to placebo at each of the three adenosine doses were performed only if there was a significant main effect for folate or a significant interaction of folate with adenosine in the ANOVA analysis. Values of P<0.05 were considered significant.

[3] = system: patients with ischemic heart disease; assay: Myocardial blood flow (MBF) by PET (13N-ammonia) at rest and during adenosine, folate crossover study; format: in vivo, human; conditions: for effect on myocardial blood flow in NORMAL regions: folate vs. placebo
Method: as §1, §2, §3
PET Image Analysis: Three short axis rings corresponding to the proximal, middle and distal thirds of the left ventricle were constructed for each K1 scan and MBF was measured within 24 standard areas of interest as described previously (Huggins, G. S., et al., Circulation 1998; 98:1291-6). Data analysis was performed without knowledge of treatment order. To determine the variability of the MBF measurement, two readers independently assessed adenosine-stimulated MBF in 120 segments in 5 subjects and the difference between and within readers was calculated. The mean (±SD) intra-, and inter-observer difference was 0.03±0.10 and 0.03±0.17 ml/min/gm, respectively.
Prospective Definition of Myocardial Zones. MBF in regions supplied by stenotic conduit vessels, which were expected to have abnormal dilator capacity, were prospectively examined separately from regions with normal dilator capacity. […] Accordingly, myocardial zones were defined physiologically as “NORMAL” vs. “ABNORMAL” based on MBF response to Ado 140 during the placebo condition. Myocardial zones with MBF with Ado 140 of <1.65 ml/min/g during placebo condition were defined as ABNORMAL. The corresponding myocardial regions were identified during the folate condition, and were labeled ABNORMAL regardless of their MBF during the folate condition. Values for ABNORMAL MBF were combined and averaged to obtain a single value of ABNORMAL blood flow for each patient at each condition, (placebo and folic acid) for each scan acquisition (rest, adenosine 70, or adenosine 140). A patient-based analysis of MBF was performed.
Dilator reserve for both NORMAL and ABNORMAL zones was defined as the difference between peak MBF and rest MBF. Peak MBF was defined as the higher of the two average MBF values obtained during adenosine (i.e, the greater of the average MBF obtained during adenosine 70 vs. adenosine 140 dose). This was done, since in patients with IHD, coronary “steal” may occur (Holmvang, G., et al., Circulation 1999; 99:2510-6). and so cause underestimation of dilator reserve in ABNORMAL regions.

[4] = system: patients with stable chronic ischemic heart disease; assay: Myocardial blood flow by PET (13N-ammonia), sildenafil crossover study; format: in vivo, human; conditions: for Myocardial Blood Flow: abnormal zones, sildenafil 100 mg given ~2-3 hrs before, mean ± SD
Method: The effects of sildenafil on myocardial blood flow were assessed. The chemical name for sildenafil is 5-[2-ethoxy-5(-4-methyl piperazine-1-ylsulfonyl)phenyl]-1-methyl-3-propyl-1,6-dihydro-7H-pyrazolo[4,3-d]pyrimidin-7-one. A study design similar to that used to test the effects of folate as described herein was used. In brief, myocardial blood flow (MBF) was measured in 14 patients with stable chronic ischemic heart disease using positron emission tomography with ^13N-ammonia. Patients were studied in double blind, placebo control, cross-over design with 100 mg sildenafil (or placebo) given ˜2-3 hrs prior to measurements of hemodynamics and myocardial blood flow at rest and during administration of adenosine at (140 μg/kg/min). Sildenafil improved myocardial blood flow in abnormal zones (Table 4). Also shown are data of the effect of folate (30 mg) on myocardial blood flow.

[5] = Ado 70, folate 30 mg oral, mean ± SD
[6] = Ado 140, folate 30 mg oral, mean ± SD
[7] = Peak, folate 30 mg oral, mean ± SD
[8] = Rest, folate 30 mg oral, mean ± SD
[9] = folate 30 mg oral, mean ± SD, listed as folate

Structure (SMILES): Nc1nc2ncc(CNc3ccc(C(=O)N[C@@H](CCC(=O)O)C(=O)O)cc3)nc2c(=O)[nH]1 [Folate, N[4-[[(2-amino-1,4-dihydro-4-oxo-6-pteridinyl)methyl]amino]benzoyl]-L-glutamic acid]
- time to peak blood levels after administration [1]: 30 to 60 min
- HR ([2]; Ado 70 (adenosine 70 μg/kg/min)): 70 ± 14 bpm
- DBP (diastolic blood pressure) ([2]; Ado 70): 68 ± 11 mmHg
- MAP (mean arterial blood pressure) ([2]; Ado 70): 95 ± 13 mmHg
- RPP (rate pressure product, SAP × HR) ([2]; Ado 70): 8604 ± 2484 mmHg × bpm
- SAP (systolic blood pressure) ([2]; Ado 70): 123 ± 18 mmHg
- HR ([2]; Ado 140 (adenosine 140 μg/kg/min)): 82 ± 15 bpm
- DBP (diastolic blood pressure) ([2]; Ado 140): 69 ± 10 mmHg
- MAP (mean arterial blood pressure) ([2]; Ado 140): 95 ± 15 mmHg
- RPP (rate pressure product, SAP × HR) ([2]; Ado 140): 9998 ± 3066 mmHg × bpm
- SAP (systolic blood pressure) ([2]; Ado 140): 120 ± 21 mmHg
- DBP (diastolic blood pressure) ([2]; Rest): 70 ± 9 mmHg
- HR ([2]; Rest): 61 ± 8 bpm
- MAP (mean arterial blood pressure) ([2]; Rest): 96±11 mmHg and 96±2 mmHg
- RPP (rate pressure product, SAP × HR) ([2]; Rest): 7483 ± 1798 mmHg × bpm
- SAP (systolic blood pressure) ([2]; Rest): 121 ± 15 mmHg
- reduction in diastolic blood pressure ([2]; folate 30 mg vs. placebo): 5 mm Hg
- change in HR ([2]; folate vs. placebo): no significant change
- change in RPP ([2]; folate vs. placebo): no significant change
- effect on systolic, diastolic and mean arterial blood pressures ([2]; folate vs. placebo, P<0.01 ANOVA): significant reduction
- patients with significant reduction in blood pressure after high-dose folate ([2]; without changes in homocysteine concentration): 11/14
- Myocardial Blood Flow, ABNORMAL zones [3, 5]: 1.60 ± 1.15 ml/min/gm
- Myocardial Blood Flow, NORMAL zones [3, 5]: 2.01 ± 0.88 ml/min/gm
- Ratio ABN:WNL (ABNORMAL/NORMAL zone MBF) [3, 5]: 0.84 ± 0.37
- Myocardial Blood Flow, ABNORMAL zones [3, 6]: 1.76 ± 0.75 ml/min/gm
- Myocardial Blood Flow, NORMAL zones [3, 6]: 2.72 ± 0.74 ml/min/gm
- Ratio ABN:WNL (ABNORMAL/NORMAL zone MBF) [3, 6]: 0.67 ± 0.21
- Myocardial Blood Flow, ABNORMAL zones ([3]; Peak (adenosine-stimulated), folate 30 mg oral, mean ± SD): 2.16±1.01 ml/min/gm
- Myocardial Blood Flow, ABNORMAL zones ([3]; Peak (adenosine-stimulated), folate 30 mg oral, mean ± SD, listed as folic acid): 2.16±1.01 ml/min/gm
- Myocardial Blood Flow, NORMAL zones [3, 7]: 2.86 ± 0.67 ml/min/gm
- Ratio ABN:WNL (ABNORMAL/NORMAL zone MBF) [3, 7]: 0.75±0.24
- Myocardial Blood Flow, ABNORMAL zones [3, 8]: 0.74 ± 0.27 ml/min/gm
- Myocardial Blood Flow, NORMAL zones [3, 8]: 0.81 ± 0.19 ml/min/gm
- Ratio ABN:WNL (ABNORMAL/NORMAL zone MBF) [3, 8]: 0.95 ± 0.17
- patients in whom flow reserve increased in ABNORMAL zones relative to NORMAL zones ([3]; after folate): 83 % of patients
- patients in whom peak MBF increased in ABNORMAL zones relative to NORMAL zones ([3]; after folate): 85 % of patients
- Dilator Reserve (peak MBF minus rest MBF), ABNORMAL ([3]; folate 30 mg oral, mean ± SD): 1.41 ± 1.08 ml/min/gm
- Dilator Reserve (peak MBF minus rest MBF), NORMAL ([3]; folate 30 mg oral, mean ± SD): 2.12±0.69 ml/min/gm
- Dilator Reserve, Ratio ABN:WNL ([3]; folate 30 mg oral, mean ± SD): 0.63 ± 0.36
- Dilator Reserve (peak MBF minus rest MBF), ABNORMAL [3, 9]: 1.41±1.08 ml/min/gm
- Dilator Reserve (peak MBF minus rest MBF), NORMAL [3, 9]: 2.12±0.69 ml/min/gm
- increase in dilator reserve in ABNORMAL segments ([3]; folate 30 mg vs. placebo): 83%
- increase in peak MBF in ABNORMAL zones ([3]; folate 30 mg vs. placebo): 49%
- effect on myocardial blood flow in NORMAL regions [3]: did not affect
- effect on myocardial blood flow in NORMAL regions ([3]; listed as folic acid): did not change
- patients in whom ABNORMAL zone MBF improved after folate ([3]; of 13 patients with abnormal zones): 10 patients

Structure (SMILES): CCCc1nn(C)c2c(=O)[nH]c(-c3cc(S(=O)(=O)N4CCN(C)CC4)ccc3OCC)nc12 [Sildenafil, 5-[2-ethoxy-5(-4-methylpiperazine-1-ylsulfonyl)phenyl]-1-methyl-3-propyl-1,6-dihydro-7H-pyrazolo[4,3-d]pyrimidin-7-one]
- Myocardial Blood Flow ([4]; Ado 140): 1.58 ± 0.55 ml/min/gm
- Myocardial Blood Flow ([4]; Rest): 0.64 ± 0.20 ml/min/gm
- effect on myocardial blood flow in abnormal zones ([4]; sildenafil 100 mg vs. placebo): improved
